Data: paper PMC8582298 (ChemMedChem, 2020)

Columns and labels:
PP1 [1] = molecular target: T1, PP1 (Oryctolagus cuniculus, UniProt P62139); assay: Malachite green assay, IC50 determination, PP1; format: biochemical; settings: for PP1 versus PP2A preference (in words): based on IC50 values; for IC50 PP1: malachite green assay, phosphopeptide K-R-pT-I-R-R 40 μM, 30 °C, three trials
PP2A = PP2A (Homo sapiens, UniProt P67775); assay: Malachite green assay, IC50 determination, PP2A; format: biochemical
PP2A, sequence (P67775 whole entry): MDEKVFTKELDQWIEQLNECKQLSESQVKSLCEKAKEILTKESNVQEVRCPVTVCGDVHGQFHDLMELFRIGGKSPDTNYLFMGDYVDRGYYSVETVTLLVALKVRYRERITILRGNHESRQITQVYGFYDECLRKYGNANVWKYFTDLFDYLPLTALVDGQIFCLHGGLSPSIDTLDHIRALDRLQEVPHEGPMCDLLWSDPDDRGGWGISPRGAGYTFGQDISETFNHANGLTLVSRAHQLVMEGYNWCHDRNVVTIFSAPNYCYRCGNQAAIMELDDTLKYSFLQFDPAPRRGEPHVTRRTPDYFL

PP1 [2] = molecular target: T1, PP1; settings: literature values; cited from earlier work

T1 sequence (P62139 whole entry): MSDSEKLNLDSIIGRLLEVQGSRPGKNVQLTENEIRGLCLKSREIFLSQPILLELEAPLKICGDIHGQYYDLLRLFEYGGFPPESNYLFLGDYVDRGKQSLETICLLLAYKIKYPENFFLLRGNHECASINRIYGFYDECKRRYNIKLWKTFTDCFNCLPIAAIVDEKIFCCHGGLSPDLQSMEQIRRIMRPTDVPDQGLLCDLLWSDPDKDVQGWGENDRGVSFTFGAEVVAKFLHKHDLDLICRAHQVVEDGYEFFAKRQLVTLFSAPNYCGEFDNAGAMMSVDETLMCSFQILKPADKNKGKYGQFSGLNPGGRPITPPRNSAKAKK

Compound | IC50 (PP1 [1]) [µM] | PP1 versus PP2A preference (in words) (PP1 [1]) | IC50 PP1 (PP1 [1]) | IC50 (PP2A) [µM] | Selectivity for PP1 over PP2A (PP1 [2])
CC1=C([C@H](O)CC(=O)O[C@H](C)[C@@H](C)[C@H](O)CC(=O)[C@@H](C)[C@@H](O)CCCCCOC(=O)c2ccccc2)C(=O)OC1=O [1d, (6S,7S,10R,11S,12R)-6,10-dihydroxy-12-(((R)-3-hydroxy-3-(4-methyl-2,5-dioxo-2,5-dihydrofuran-3-yl)propanoyl)oxy)-7,11-dimethyl-8-oxotridecyl benzoate] | 0.034 ± 0.002 | PP1 selective | nanomolar range | 0.26 | –
CC1=C([C@H](O)CC(=O)O[C@H](C)[C@@H](C)[C@H](O)CC(=O)[C@@H](C)[C@@H](O)CCCCCOC(=O)c2ccc(-c3ccccc3)cc2)C(=O)OC1=O [1e, (6S,7S,10R,11S,12R)-6,10-dihydroxy-12-(((R)-3-hydroxy-3-(4-methyl-2,5-dioxo-2,5-dihydrofuran-3-yl)propanoyl)oxy)-7,11-dimethyl-8-oxotridecyl [1,1’-biphenyl]-4-carboxylate] | 1.5 ± 0.15 | PP1 selective | nanomolar range | 6.8 | –
CO[C@H]([C@H](O)CC(=O)[C@@H](C)[C@@H](O)CC[C@@H](C)[C@@H]1O[C@]2(CC[C@@H](C)[C@H](CC[C@H](C)C(C)=O)O2)CC[C@@H]1C)[C@H](OC(=O)C[C@@H](O)C1=C(C)C(=O)OC1=O)C(C)C [TTM, tautomycin] | – | – | – | – | approximately 5 fold
C=C/C(=C/C(=O)C[C@H](C)C[C@@H](C)CC[C@H](O)[C@H](C)C(=O)C[C@@H](O)[C@H](C)[C@@H](C)OC(=O)C[C@@H](O)C1=C(C)C(=O)OC1=O)CC [TTN, tautomycetin, reference compound] | 0.011 ± 0.001 | – | – | 0.49 | ~140 fold
